Results taken from ChEMBL document CHEMBL1201862, “PubChem BioAssay data set” (2004).
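These data come from cells grown in 96-well plates and exposed to compound for 48 hours at five concentrations. Abbreviation: GI50, concentration required for 50% inhibition of growth.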 Active and inactive are the calls of the source. Rule as the data show it: active = GI50 up to about 1.1 µM and inactive = higher.

Experiments:
Assay in all cases: NCI-60 cell line screen, 48 h
MCF7 = system: MCF7
OVCAR-5 = system: OVCAR-5
Malme-3M = system: Malme-3M
NCI-H522 = system: NCI-H522
A549 = system: A549
NCI-H226 = system: NCI-H226
HOP-92 = system: HOP-92
HT-29 = system: HT-29
SK-MEL-5 = system: SK-MEL-5
786-0 = system: 786-0
SW-620 = system: SW-620
IGROV-1 = system: IGROV-1
SN12C = system: SN12C
SK-MEL-28 = system: SK-MEL-28
NCI-H23 = system: NCI-H23
KM-20L2 = system: KM-20L2
SF-295 = system: SF-295
MDA-N = system: MDA-N
U-251 = system: U-251
A498 = system: A498

Compound | GI50 (MCF7) | GI50 (OVCAR-5) | GI50 (Malme-3M) | GI50 (NCI-H522) | GI50 (A549) | GI50 (NCI-H226) | GI50 (HOP-92) | GI50 (HT-29) | GI50 (SK-MEL-5) | GI50 (786-0) | GI50 (SW-620) | GI50 (IGROV-1) | GI50 (SN12C) | GI50 (SK-MEL-28) | GI50 (NCI-H23) | GI50 (KM-20L2) | GI50 (SF-295) | GI50 (MDA-N) | GI50 (U-251) | GI50 (A498)
Cc1ccc(C(=O)NCc2ccccc2)cc1/N=N/N(C)C | > 100 µM (inactive) | > 100 µM (inactive) | > 100 µM (inactive) | 27.7 µM (inactive) | > 77.8 µM (inactive) | > 100 µM (inactive) | 65 µM (inactive) | > 58.7 µM (inactive) | > 74.3 µM (inactive) | > 100 µM (inactive) | > 100 µM (inactive) | > 100 µM (inactive) | > 100 µM (inactive) | > 96.6 µM (inactive) | > 100 µM (inactive) | 65.9 µM (inactive) | > 71.9 µM (inactive) | > 100 µM (inactive) | > 100 µM (inactive) | –
C=C1C(=O)OC2/C=C(\CO)C3OC3C3OC3(C)CC(OC(=O)/C(=C/C)COC(C)=O)C12 (stereo unspecified) | 3.94 µM (inactive) | 15.3 µM (inactive) | 1.67 µM (inactive) | 0.313 µM (active) | 18.6 µM (inactive) | 21.6 µM (inactive) | 2.01 µM (inactive) | 3.89 µM (inactive) | 8.13 µM (inactive) | 2.29 µM (inactive) | 1.35 µM (inactive) | 13.2 µM (inactive) | 3.2 µM (inactive) | 1.82 µM (inactive) | 6.93 µM (inactive) | 6.17 µM (inactive) | 10 µM (inactive) | 3.58 µM (inactive) | 5 µM (inactive) | 13.8 µM (inactive)
COC(=O)[C@H](CC(C)C)NC(=O)[C@H](Cc1ccccc1)N1CC2C=CC1C2 (stereo partly specified) | – | > 100 µM (inactive) | > 100 µM (inactive) | > 100 µM (inactive) | > 100 µM (inactive) | > 100 µM (inactive) | 96.6 µM (inactive) | > 100 µM (inactive) | > 100 µM (inactive) | > 100 µM (inactive) | > 100 µM (inactive) | > 100 µM (inactive) | > 100 µM (inactive) | > 100 µM (inactive) | > 100 µM (inactive) | > 100 µM (inactive) | > 100 µM (inactive) | – | > 100 µM (inactive) | > 100 µM (inactive)
CC1(C)CC(=O)C(CC2C(=O)c3ccccc3C2=O)C(=O)C1 | – | > 100 µM (inactive) | > 100 µM (inactive) | > 100 µM (inactive) | > 100 µM (inactive) | > 100 µM (inactive) | > 100 µM (inactive) | > 100 µM (inactive) | > 100 µM (inactive) | > 100 µM (inactive) | > 100 µM (inactive) | > 100 µM (inactive) | > 100 µM (inactive) | > 100 µM (inactive) | > 100 µM (inactive) | > 100 µM (inactive) | > 100 µM (inactive) | – | > 100 µM (inactive) | > 100 µM (inactive)
CC(=O)Nc1ccccc1-c1cnc2ccccc2n1 | – | > 100 µM (inactive) | > 100 µM (inactive) | > 100 µM (inactive) | > 100 µM (inactive) | > 100 µM (inactive) | > 100 µM (inactive) | > 100 µM (inactive) | > 100 µM (inactive) | > 100 µM (inactive) | > 100 µM (inactive) | > 100 µM (inactive) | > 100 µM (inactive) | > 100 µM (inactive) | > 100 µM (inactive) | > 100 µM (inactive) | > 100 µM (inactive) | – | > 100 µM (inactive) | > 100 µM (inactive)
Cc1c(C(=O)CSc2nc3ccccc3[nH]2)c(=O)n(-c2ccccc2)n1C | – | > 100 µM (inactive) | 34.9 µM (inactive) | > 100 µM (inactive) | > 100 µM (inactive) | > 100 µM (inactive) | > 100 µM (inactive) | > 100 µM (inactive) | > 100 µM (inactive) | > 100 µM (inactive) | > 100 µM (inactive) | > 100 µM (inactive) | > 100 µM (inactive) | > 100 µM (inactive) | > 100 µM (inactive) | > 100 µM (inactive) | > 100 µM (inactive) | – | > 100 µM (inactive) | > 100 µM (inactive)
